Experimental data from publication PMC3274641 (Bioorganic & medicinal chemistry letters, 2011).
Entries after “also recorded” stand apart in the source; their conditions may differ. Where two headings read alike, the source gives them in different places.

Assays:
Hα4β2 nAChRs [1] = biological target: T1, Hα4β2 nAChRs (Homo sapiens, UniProt P17787+P43681); conditions: scaffolds; previously reported data; cited from earlier work
Hα3β4 nAChRs [2] = biological target: T2, Hα3β4 nAChRs (Homo sapiens, UniProt P30926+P32297); conditions: scaffolds; previously reported data; cited from earlier work
T2 sequence (P32297 32-505): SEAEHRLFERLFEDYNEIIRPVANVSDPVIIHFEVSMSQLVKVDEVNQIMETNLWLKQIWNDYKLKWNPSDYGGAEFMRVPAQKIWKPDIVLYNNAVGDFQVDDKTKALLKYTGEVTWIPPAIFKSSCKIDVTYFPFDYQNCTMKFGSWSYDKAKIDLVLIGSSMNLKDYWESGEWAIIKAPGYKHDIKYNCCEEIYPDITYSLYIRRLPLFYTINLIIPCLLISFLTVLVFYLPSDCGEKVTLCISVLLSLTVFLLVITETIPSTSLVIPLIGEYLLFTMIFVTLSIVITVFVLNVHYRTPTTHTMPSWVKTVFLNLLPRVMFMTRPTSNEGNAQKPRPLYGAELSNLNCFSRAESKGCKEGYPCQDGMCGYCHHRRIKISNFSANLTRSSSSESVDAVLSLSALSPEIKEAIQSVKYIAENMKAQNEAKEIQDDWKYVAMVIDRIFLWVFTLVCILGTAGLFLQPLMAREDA
T2 sequence (P30926 22-498): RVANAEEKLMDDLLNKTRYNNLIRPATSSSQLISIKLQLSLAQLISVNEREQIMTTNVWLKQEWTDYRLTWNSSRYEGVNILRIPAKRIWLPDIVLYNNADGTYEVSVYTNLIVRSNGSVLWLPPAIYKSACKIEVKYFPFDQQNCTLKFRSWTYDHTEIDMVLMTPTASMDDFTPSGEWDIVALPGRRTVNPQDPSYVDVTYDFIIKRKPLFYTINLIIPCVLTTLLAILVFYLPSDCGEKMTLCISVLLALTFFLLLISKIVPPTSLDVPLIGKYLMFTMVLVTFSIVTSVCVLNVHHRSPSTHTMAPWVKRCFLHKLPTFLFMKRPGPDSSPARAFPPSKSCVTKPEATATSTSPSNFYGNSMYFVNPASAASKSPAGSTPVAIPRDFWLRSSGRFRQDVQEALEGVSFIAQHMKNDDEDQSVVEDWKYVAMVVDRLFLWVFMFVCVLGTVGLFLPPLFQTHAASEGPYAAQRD

Hα3β4 nAChRs [3] = biological target: T2, Hα3β4 nAChRs; assay: Inhibition of Hα3β4 nAChRs by NAMs; type: cell-based; conditions: for change in potency on Hα3β4 nAChRs compared to scaffolds (in words): scaffolds KAB-18, KAB-24, COB-4, respectively
Hα4β2 nAChRs [4] = biological target: T1, Hα4β2 nAChRs; assay: cell-based; type: cell-based; conditions: for fold more potent than lead molecule KAB-18: Hα4β2 nAChRs
[5] = at the 1 year mark; agonist-antagonist therapy in combination with the nicotine patch; cited from earlier work

T1 sequence (P43681 29-627 limits assumed): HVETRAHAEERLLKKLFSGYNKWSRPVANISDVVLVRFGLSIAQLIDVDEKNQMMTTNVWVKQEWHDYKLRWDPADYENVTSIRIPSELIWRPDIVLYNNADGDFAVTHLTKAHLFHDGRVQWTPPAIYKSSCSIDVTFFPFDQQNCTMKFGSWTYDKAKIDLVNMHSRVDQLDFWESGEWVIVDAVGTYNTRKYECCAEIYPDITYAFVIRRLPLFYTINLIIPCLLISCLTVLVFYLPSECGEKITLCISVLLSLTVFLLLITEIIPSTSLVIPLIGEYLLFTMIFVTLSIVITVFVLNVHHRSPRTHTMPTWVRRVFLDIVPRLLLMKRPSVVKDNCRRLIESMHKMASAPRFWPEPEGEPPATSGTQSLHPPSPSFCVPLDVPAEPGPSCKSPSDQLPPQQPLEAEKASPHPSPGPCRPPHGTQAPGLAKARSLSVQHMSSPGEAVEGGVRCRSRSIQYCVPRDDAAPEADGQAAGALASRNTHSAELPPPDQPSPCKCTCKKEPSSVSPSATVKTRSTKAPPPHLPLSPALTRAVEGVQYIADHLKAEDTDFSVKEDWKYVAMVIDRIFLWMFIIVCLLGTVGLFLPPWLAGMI
T1 sequence (P17787 26-502): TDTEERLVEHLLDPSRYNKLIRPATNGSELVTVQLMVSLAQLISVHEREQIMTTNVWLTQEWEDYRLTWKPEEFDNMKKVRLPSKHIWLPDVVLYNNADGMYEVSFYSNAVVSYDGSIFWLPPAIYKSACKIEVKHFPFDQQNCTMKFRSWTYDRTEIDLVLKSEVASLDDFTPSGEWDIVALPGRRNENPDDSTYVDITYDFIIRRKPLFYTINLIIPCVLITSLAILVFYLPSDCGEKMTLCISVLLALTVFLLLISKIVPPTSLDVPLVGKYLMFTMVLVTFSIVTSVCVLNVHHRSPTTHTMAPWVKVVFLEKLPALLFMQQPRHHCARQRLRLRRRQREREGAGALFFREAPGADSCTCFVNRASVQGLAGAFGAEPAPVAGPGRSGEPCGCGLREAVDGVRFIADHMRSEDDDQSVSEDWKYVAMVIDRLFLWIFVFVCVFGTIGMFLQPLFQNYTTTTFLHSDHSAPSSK

O=C(OC1CCCN(CCCc2ccccc2)C1)c1ccccc1-c1ccccc1 (centres unmarked) [DDR-14]
nH, Hill coefficient, Hα4β2 nAChRs (Hα4β2 nAChRs [1]): −1.6
nH, Hill coefficient, Hα3β4 nAChRs (Hα3β4 nAChRs [2]): −1.4

O=C(Nc1ccccc1)c1ccccc1-c1ccccc1 [COB-171]
nH, Hill coefficient, Hα3β4 nAChRs (Hα3β4 nAChRs [3]; COB series): −2.2
selectivity for Hα4β2 nAChRs over Hα3β4 nAChRs (in words) (Hα4β2 nAChRs [4]): nonselective
nH, Hill coefficient, Hα4β2 nAChRs (Hα4β2 nAChRs [4]; COB series): −1.3
fold more potent than lead molecule KAB-18 (Hα4β2 nAChRs [4]): 2 fold

CNC1(C)C2CCC(C2)C1(C)C (centres unmarked) [Mecamylamine]
abstinence [5]: 40%

O=C(NCc1cccc2ccccc12)c1ccccc1-c1ccccc1 [COB-172]
nH, Hill coefficient, Hα3β4 nAChRs (Hα3β4 nAChRs [3]; COB series): −0.4
selectivity for Hα4β2 nAChRs over Hα3β4 nAChRs (in words) (Hα4β2 nAChRs [4]): maintained selectivity for Hα4β2 nAChRs
nH, Hill coefficient, Hα4β2 nAChRs (Hα4β2 nAChRs [4]; COB series): −0.7
change in potency on Hα4β2 nAChRs (in words) (Hα4β2 nAChRs [4]; compared to lead molecule KAB-18): no change in potency; also recorded: maintained potency

O=C(OCC1CCCN(CCCc2ccccc2)C1)c1ccccc1C(F)(F)F (centres unmarked) [KAB-24]
nH, Hill coefficient, Hα4β2 nAChRs (Hα4β2 nAChRs [1]): −0.8
nH, Hill coefficient, Hα3β4 nAChRs (Hα3β4 nAChRs [2]): −0.8

O=C(OCC1CCN(CCCc2ccccc2)CC1)c1ccccc1-c1ccccc1 [COB-4]
nH, Hill coefficient, Hα4β2 nAChRs (Hα4β2 nAChRs [1]): −0.8
nH, Hill coefficient, Hα3β4 nAChRs (Hα3β4 nAChRs [2]): −1.0

O=C(Nc1cccc2ccccc12)c1ccccc1-c1ccccc1 [COB-175]
nH, Hill coefficient, Hα3β4 nAChRs (Hα3β4 nAChRs [3]; COB series): −1.2
nH, Hill coefficient, Hα4β2 nAChRs (Hα4β2 nAChRs [4]; COB series): −0.8
fold preference for Hα4β2 nAChRs (Hα4β2 nAChRs [4]; over Hα3β4 nAChRs): 2 fold

O=C(OCC1CCCN(C(=O)CCc2ccccc2)C1)c1ccccc1C(F)(F)F (centres unmarked) [IMB-134]
nH, Hill coefficient, Hα3β4 nAChRs (Hα3β4 nAChRs [3]; IMB series): −2.1
change in potency on Hα3β4 nAChRs compared to scaffolds (in words) (Hα3β4 nAChRs [3]): no change in potency
nH, Hill coefficient, Hα4β2 nAChRs (Hα4β2 nAChRs [4]; IMB series): −1.5

O=C(OCC1CCCN(CCCc2ccccc2)C1)c1ccccc1-c1ccccc1 (centres unmarked) [KAB-18]
nH, Hill coefficient, Hα4β2 nAChRs (Hα4β2 nAChRs [1]): −1.4

O=C(Nc1ccccn1)c1ccccc1-c1ccccc1 [COB-173]
nH, Hill coefficient, Hα3β4 nAChRs (Hα3β4 nAChRs [3]; COB series): −0.9
selectivity for Hα4β2 nAChRs over Hα3β4 nAChRs (in words) (Hα4β2 nAChRs [4]): nonselective
nH, Hill coefficient, Hα4β2 nAChRs (Hα4β2 nAChRs [4]; COB series): −1.0

O=C(OCC1CCN(C(=O)CCc2ccccc2)CC1)c1ccccc1-c1ccccc1 [IMB-135]
nH, Hill coefficient, Hα3β4 nAChRs (Hα3β4 nAChRs [3]; IMB series): −1.5
change in potency on Hα3β4 nAChRs compared to scaffolds (in words) (Hα3β4 nAChRs [3]): no change in potency

O=C(OCC1CCCN(CCCc2ccccc2)C1)c1ccccc1-c1cccc2ccccc12 (centres unmarked) [FFB-1]
IC50 (Hα3β4 nAChRs [3]): 178 µM
Obs. [SI] QSSR (Hα4β2/Hα3β4) (Hα4β2 nAChRs [4]; training set, selectivity Hα4β2 vs Hα3β4): 1.29

O=C(NCc1ccccc1)c1ccccc1-c1ccccc1 [COB-170]
IC50 (Hα3β4 nAChRs [3]): 8.5 µM
nH, Hill coefficient, Hα3β4 nAChRs (Hα3β4 nAChRs [3]; COB series): −1.8
selectivity for Hα4β2 nAChRs over Hα3β4 nAChRs (in words) (Hα4β2 nAChRs [4]): nonselective
nH, Hill coefficient, Hα4β2 nAChRs (Hα4β2 nAChRs [4]; COB series): −1.1
fold more potent than lead molecule KAB-18 (Hα4β2 nAChRs [4]): 2 fold

O=C(OC1CCCN(C(=O)CCc2ccccc2)C1)c1ccccc1-c1ccccc1 (centres unmarked) [IMB-132]
nH, Hill coefficient, Hα3β4 nAChRs (Hα3β4 nAChRs [3]; IMB series): −1.6
fold decrease in potency on Hα3β4 nAChRs compared to scaffold molecule (Hα3β4 nAChRs [3]; compared to DDR-14): 2 fold
IC50 (Hα4β2 nAChRs [4]): 2700 nM
nH, Hill coefficient, Hα4β2 nAChRs (Hα4β2 nAChRs [4]; IMB series): −1.6

O=C(Nc1ccncn1)c1ccccc1-c1ccccc1 [COB-174]
nH, Hill coefficient, Hα3β4 nAChRs (Hα3β4 nAChRs [3]; COB series): −0.9
selectivity for Hα4β2 nAChRs over Hα3β4 nAChRs (in words) (Hα4β2 nAChRs [4]): nonselective
nH, Hill coefficient, Hα4β2 nAChRs (Hα4β2 nAChRs [4]; COB series): −1.5
